Reference: patent publication US11375718B2, “Use of prodigiosin in resisting potyvirus” (priority 2020, dated 2022)
pIC50: −log10 of the molar value. Residues, ends and D or L forms follow the SMILES beside them. *: point of attachment. Cbz = O=C(OCc1ccccc1)*

Experiments:
Hsp70 protein = assay: Western blot of Hsp70 protein in MG-132-treated plants induced by prodigiosin S3; assay type: in vivo, Nicotiana benthamiana
Method: In order to further analyze the role of ubiquitination modification in the antiviral mechanism of prodigiosin S3, we used MG-132 to treat Nicotiana benthamiana in advance. After 2 h, 0.05 μg/L prodigiosin was applied on the tobacco leaf surface uniformly according to 15 L/mu. After 30 minutes, TMV and PVY viruses were inoculated. The samples of 1 d, 2 d and 3 d after virus inoculation were collected for Western Blot analysis.

26S proteasome complex = conditions: read-out: IC50 (proteasome inhibitor); cited from earlier work
TMV = assay: Induced resistance of tobacco to TMV after leaf application of prodigiosin; assay type: in vivo, Nicotiana tabacum cv. NC89; conditions: infiltration treatment
Method: (§1) The plant material used in this experiment was Nicotiana tabacum cv. NC89, reproduced by our laboratory and cultivated in a greenhouse. Experimental plant culture conditions included: illumination 16 h, temperature 25±1° C., illumination intensity 2000 lux and relative humidity 60%; and dark duration 8 h, temperature 25±1° C. and relative humidity 60%. The nutrient substrate was produced by the Wode nutrient soil processing plant in Shouguang City, Shandong Province, and no additional fertilization was needed during plant growth. The sources of TMV and PVY were preserved by the Plant Protection Research Center of the Institute of Tobacco Research of CAAC (Chinese Academy of Agricultural Sciences), and were propagated and preserved on Nicotiana tabacum cv. NC89 grown in the greenhouse. The prodigiosin S3 was isolated and purified from Serratia marcescens fermentation broth by Plant Protection Research Center of the Institute of Tobacco Research of CAAC.

PVY = assay: Induced resistance of tobacco to PVY after leaf application of prodigiosin; assay type: in vivo, Nicotiana tabacum cv. NC89; conditions: infiltration treatment
Method: as §1

[1] = Quantitative proteomics and ubiquitination omics of prodigiosin-treated tobacco leaves; assay type: in vivo, Nicotiana benthamiana; conditions: treatment group vs control group, p<0.05
Text: In order to further understand the mechanism of systemic resistance of a plant induced by prodigiosin, the prodigiosin treated Nicotiana benthamiana was used as a target material, the optimal reaction time point of prodigiosin against PVY was selected, and the quantitative proteomics and ubiquitinated nonstandard quantitative proteomics in tobacco leaves were studied by organically combining a series of advanced technologies such as non-standard quantitative technology, high performance liquid chromatography (HPLC) fractionation technology, ubiquitinated peptide enrichment technology and quantitative proteomics technology based on mass spectrometry.
Extraction of protein. The leaf sample was taken from −80° C., put in a mortar precooled with liquid nitrogen, fed with liquid nitrogen, and fully ground to powder; 4 times the volume of powdered lysis buffer (8 M urea, 1% TritonX-100, 10 mM DTT, 1% protease inhibitor and 50 μM PR-619) was added for ultrasonic lysis; followed by 10 min of centrifugation (4° C., 20000 g), the supernatant was carefully aspirated off, and trichloroacetic acid was added to a final concentration of 20%; the mixture was left at 4° C. for 2 h; and centrifuged (4° C., 20000 g) for 3 min. The supernatant was discharged, and the precipitate was washed with precooled acetone for three times; the precipitate was re-dissolved (8 M urea) and the protein concentration was determined.
Proteolysis. DTT was added to the protein solution to a final concentration of 5 mM and was reduced at 56° C. for 30 min. Iodoacetamide was then added and incubated for 15 min at room temperature away from light. Pancreatin was added based on a mass ratio of pancreatin:protein=1:50 and enzymolysis was performed at 37° C. overnight. Pancreatin was added again based on a mass ratio of pancreatin:protein=1:100 and enzymolysis was continued for 4 h.
HPLC Fractionation. The enzymatic solution was fractionated by high pH reverse phase HPLC on an Agilent 300 Extend C18 (5 μm particle size, 4.6 mm internal diameter, 250 mm length) column. The operation was as follows: a peptide fragment grading gradient was 8%-32% acetonitrile, the pH was 9; 60 components were separated in 60 min, then the components were combined into 4 components, and the combined components were subjected to lyophilization for subsequent operations.
HPLC-MS Analysis. The lyophilized fractions were analyzed by HPLC-MS: dissolved by a mobile phase A phase (0.1% (v/v) formic acid in water) and separated using EASY-nLC 1000 ultra high performance liquid phase system. […]
Database Search. […] Differential genes and proteins were analyzed by GO enrichment, and KEGG pathway.

[2] = 2031 sites on 1110 proteins identified

Compound: CC(C)C[C@@H](C=O)NC(=O)[C@H](CC(C)C)NC(=O)[C@H](CC(C)C)NC(=O)OCc1ccccc1 [MG-132] (Cbz-Leu-Leu-Leu-aldehyde)
- content of Hsp70 protein (Hsp70 protein; MG-132-treated samples induced by prodigiosin S3): increases significantly
- accumulation of Hsp70 protein (Hsp70 protein; MG-132 in advance, after 2 h 0.05 μg/L prodigiosin at 15 L/mu, inoculated after 30 minutes, PVY virus 1 d, vs control group): significantly increased
- pIC50 (26S proteasome complex): 7.00

Compound: CCCCCC1=C/C(=C/c2[nH]c(-c3ccc[nH]3)cc2OC)N=C1C [prodigiosin]
- induced resistance to TMV (TMV): 100%
- induced resistance to PVY (PVY): 100%
- number of ubiquitination sites with down-regulated modification level [1, 2]: 21
- number of ubiquitination sites with up-regulated modification level [1, 2]: 33
- number of proteins with down-regulated expression ([1]; 6122 proteins identified): 186
- number of proteins with up-regulated expression ([1]; 6122 proteins identified): 223
